Experimental data reported in patent US20210221866A1, “PROTEASE-RESISTANT LIPIDATED GLP-1 ANALOGS” (MEDIMMUNE LIMITED, priority 2015, published 2021).
Where two headings read alike, the source gives them in different places. Numbered stars: 1 amine (or outer) side, 2 acyl side, 3 side chain; on linkers, the order of the positions; unused ones are H or OH. Square brackets hold non-standard residues; d marks the D form. Side chains are listed from the residue outwards. Peptide text beside a SMILES is read from it. * marks the point of attachment. γGlu = O=C(O)[C@H](CCC(=O)[*:2])N[*:1]; αMeF = C[C@](N)(Cc1ccccc1)C(=O)O; αMeK = C[C@](N)(CCCCN)C(=O)O; Lauroyl = CCCCCCCCCCCC(=O)*; αMeS = C[C@](N)(CO)C(=O)O; AEEA = NCCOCCOCC(=O)O; Aib = CC(C)(N)C(=O)O

What was measured:
[1] = molecular target: porcine pancreatic trypsin (Sus scrofa, UniProt P00761); experiment: Proteolytic resistance to trypsin (% remaining intact peptide, RP-HPLC AUC); assay type: in vitro ADME; details: t = 0; 37° C., pH 7.8
porcine pancreatic trypsin, sequence (P00761 9-231): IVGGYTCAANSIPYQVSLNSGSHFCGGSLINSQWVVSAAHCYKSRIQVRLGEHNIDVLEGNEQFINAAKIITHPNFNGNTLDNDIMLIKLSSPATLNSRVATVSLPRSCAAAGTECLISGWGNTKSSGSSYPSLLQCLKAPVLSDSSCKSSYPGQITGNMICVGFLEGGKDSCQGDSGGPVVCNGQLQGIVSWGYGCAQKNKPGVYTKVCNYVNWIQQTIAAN
Procedure: Trypsin: Lyophilized porcine pancreatic trypsin (Sigma: T1426) was reconstituted to afford a solution of 100 μg/mL (˜300 units/mL) in assay buffer (50 mM Tris, 10 mM CaCl2), 150 mM NaCl, 1 mM HCl, adjusted to pH 7.8) to give the enzyme stock solution. […] Ratio enzyme (units):peptide (μmoles) ˜1:11. […] Ratio enzyme (units):peptide (μ moles) ˜1.2:1.
Lyophilized porcine pancreatic trypsin (Sigma: T7409) was reconstituted to 200 μg/mL (˜300 units/mL) in assay buffer (50 mM Tris, 10 mM CaCl2), 150 mM NaCl, 1 mM HCl, adjusted to pH 7.8) to give the enzyme stock solution. […] 15 μL aliquots (˜15 μg initial peptide) of the peptide-enzyme mixture were periodically withdrawn (t=0, 30 mins, 1 hr, 2 hr, 4 hr, 8 hr, 24 hr) and quenched immediately by addition to an equal volume (15 μL) of 5% TFA (v/v) in 1:1 water/acetonitrile to arrest proteolytic activity. 20 μL aliquots (˜10 μg initial peptide) were analysed by LC/MS and/or analytical RP-HPLC as follows: LC/MS method: Agilent Polaris C8-A column (4.6×100 mm, 3 micron) eluted with a linear binary gradient of 10-90% MeCN (0.1% TFA v/v) in water (0.1% TFA v/v) over 30 mins at 1.5 mL min^−1 at ambient temperature with detection by both UV absorption at 210 nm and ionization using a Waters 3100 mass detector (ESI^+ mode). Peptide fragments deriving from enzymatic hydrolysis were identified by molecular weight, allowing location of the site of cleavage. Analytical RP-HPLC method: Agilent Polaris C8-A column (4.6×100 mm, 3 micron) eluted with a linear binary gradient of 10-90% MeCN (0.1% TFA v/v) in water (0.1% TFA v/v) over either 10 or 15 mins at 1.5 mL min^−1 at 40° C. with detection by UV absorption at 210 nm. Manual integration (AUC) allowed estimation of remaining intact peptide over the time course of the experiment.
Lyophilized porcine pancreatic trypsin (Sigma: T7409) was reconstituted to 200 μg/mL (˜300 units/mL) in assay buffer (50 mM Tris, 10 mM CaCl2), 150 mM NaCl, 1 mM HCl, adjusted to pH 7.8) to give the enzyme stock solution. […] 25 μL aliquots (˜17 μg initial peptide) of the peptide-enzyme mixture were periodically withdrawn (t=0, 30 mins, 1 hr, 2 hr, 4 hr, 8 hr, 24 hr) and quenched immediately by addition to an equal volume (25 μL) of 5% TFA (v/v) in 1:1 water/acetonitrile to arrest proteolytic activity. 25 μL aliquots (˜8 μg initial peptide) were analysed by LC/MS and/or analytical RP-HPLC as follows: LC/MS method: Agilent Polaris C8-A column (4.6×100 mm, 3 micron) eluted with a linear binary gradient of 10-90% MeCN (0.1% TFA v/v) in water (0.1% TFA v/v) over 30 mins at 1.5 mL min^−1 at ambient temperature with detection by both UV absorption at 210 nm and ionization using a Waters 3100 mass detector (ESI^+ mode). Peptide fragments deriving from enzymatic hydrolysis were identified by molecular weight, allowing location of the site of cleavage. Analytical RP-HPLC method: Agilent Polaris C8-A column (4.6×100 mm, 3 micron) eluted with a linear binary gradient of 10-90% MeCN (0.1% TFA v/v) in water (0.1% TFA v/v) over either 10 or 15 mins at 1.5 mL min^−1 at 40° C. with detection by UV absorption at 210 nm. Manual integration (AUC) allowed estimation of remaining intact peptide over the time course of the experiment.

[2] = molecular target: T1, porcine pancreatic pepsin (Sus scrofa, UniProt P00791); experiment: Proteolytic resistance to pepsin (% remaining intact peptide, RP-HPLC AUC); assay type: in vitro ADME; details: t = 0; 37° C., pH 2.0
T1 construct: purchased Sigma P7012
T1 sequence (P00791 60-385): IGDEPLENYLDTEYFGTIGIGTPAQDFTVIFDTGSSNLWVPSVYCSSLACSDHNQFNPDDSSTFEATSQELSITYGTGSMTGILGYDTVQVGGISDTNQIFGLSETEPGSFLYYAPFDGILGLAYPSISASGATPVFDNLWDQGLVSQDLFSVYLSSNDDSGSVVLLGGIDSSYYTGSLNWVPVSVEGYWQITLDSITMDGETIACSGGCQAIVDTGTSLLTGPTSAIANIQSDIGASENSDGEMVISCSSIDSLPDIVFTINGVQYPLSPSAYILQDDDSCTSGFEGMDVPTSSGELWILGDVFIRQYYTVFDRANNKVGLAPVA
Procedure: Pepsin: Lyophilized porcine pancreatic pepsin (Sigma: P7012) was reconstituted to afford a solution of 200 μg/mL (˜500 units/mL) in assay buffer (0.1 M HCl, pH 2.0) to give the enzyme stock solution. […] Ratio enzyme (units):peptide (moles) ˜1:6. […] Ratio enzyme (units):peptide (μmoles) ˜2:1.
Lyophilized porcine pancreatic pepsin (Sigma: P7012) was reconstituted to […] (˜500 units/mL) in assay buffer ([…], pH 2.0) to give the enzyme stock solution.

[3] = molecular target: T2, recombinant Neprilysin (Homo sapiens, UniProt P08473); experiment: Proteolytic resistance to neprilysin (% remaining peptide, RP-HPLC AUC); assay type: in vitro ADME; details: t = 0 (baseline); 37° C., pH 8.3; enzyme:peptide ~1:33 for non-lipidated, ~1:2.5 for lipidated peptides
T2 construct: purchased R&D Systems 1182-ZNC-010
T2 sequence (P08473 whole entry): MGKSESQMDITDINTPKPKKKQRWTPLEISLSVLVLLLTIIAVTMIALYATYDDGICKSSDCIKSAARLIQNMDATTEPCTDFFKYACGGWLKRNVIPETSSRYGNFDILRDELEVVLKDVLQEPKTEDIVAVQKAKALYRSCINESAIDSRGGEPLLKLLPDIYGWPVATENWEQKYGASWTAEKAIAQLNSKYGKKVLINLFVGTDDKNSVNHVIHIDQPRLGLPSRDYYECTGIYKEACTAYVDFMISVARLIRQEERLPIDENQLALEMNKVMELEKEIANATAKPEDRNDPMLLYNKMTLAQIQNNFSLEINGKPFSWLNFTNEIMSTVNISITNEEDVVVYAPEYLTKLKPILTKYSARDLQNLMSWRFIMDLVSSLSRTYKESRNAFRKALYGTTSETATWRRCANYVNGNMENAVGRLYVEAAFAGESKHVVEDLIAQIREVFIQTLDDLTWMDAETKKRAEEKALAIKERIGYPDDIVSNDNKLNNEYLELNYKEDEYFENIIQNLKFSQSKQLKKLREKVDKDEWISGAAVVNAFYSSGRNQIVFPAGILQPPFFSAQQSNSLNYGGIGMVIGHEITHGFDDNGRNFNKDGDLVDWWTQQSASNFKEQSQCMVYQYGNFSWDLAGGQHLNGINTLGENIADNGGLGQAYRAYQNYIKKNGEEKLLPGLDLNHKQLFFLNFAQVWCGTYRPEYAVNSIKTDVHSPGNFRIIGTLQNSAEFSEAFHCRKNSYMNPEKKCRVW
Procedure: Ratio enzyme (units):peptide (moles) ˜1:33. […] Ratio enzyme (units):peptide (moles) ˜1:2.5.
15 μL aliquots (˜15 ng initial peptide) of the peptide-enzyme mixture were periodically withdrawn (t=0, 30 mins, 1 hr, 2 hr, 4 hr, 8 hr, 24 hr) and quenched immediately by addition to an equal volume (15 μL) of 5% TFA (v/v) in 1:1 water/acetonitrile to arrest proteolytic activity. 20 μL aliquots (˜10 ng initial peptide) were analyzed by LC/MS and/or analytical RP-HPLC as follows: LC/MS method: Agilent Polaris C8-A column (4.6×100 mm, 3 micron) eluted with a linear binary gradient of 10-90% MeCN (0.1% TFA v/v) in water (0.1% TFA v/v) over 30 mins at 1.5 mL min-1 at ambient temperature with detection by both UV absorption at 210 nm and ionization using a Waters 3100 mass detector (ESI+ mode). Peptide fragments deriving from enzymatic hydrolysis were identified by molecular weight, allowing location of the site of cleavage. Analytical RP-HPLC method: Agilent Polaris C8-A column (4.6×100 mm, 3 micron) eluted with a linear binary gradient of 10-90% MeCN (0.1% TFA v/v) in water (0.1% TFA v/v) over either 10 or 15 mins at 1.5 mL min^−1 at 40° C. with detection by UV absorption at 210 nm. Manual integration (AUC) allowed estimation of remaining intact peptide over the time course of the experiment.
25 μL aliquots (˜6 μg initial peptide) were analyzed by LC/MS and/or analytical RP-HPLC as follows: LC/MS method: Agilent Polaris C8-A column (4.6×100 mm, 3 micron) eluted with a linear binary gradient of 10-90% MeCN (0.1% TFA v/v) in water (0.1% TFA v/v) over 30 mins at 1.5 mL min^−1 at ambient temperature with detection by both UV absorption at 210 nm and ionization using a Waters 3100 mass detector (ESI^+ mode). Peptide fragments deriving from enzymatic hydrolysis were identified by molecular weight, allowing location of the site of cleavage. Analytical RP-HPLC method: Agilent Polaris C8-A column (4.6×100 mm, 3 micron) eluted with a linear binary gradient of 10-90% MeCN (0.1% TFA v/v) in water (0.1% TFA v/v) over either 10 or 15 mins at 1.5 mL min^−1 at 40° C. with detection by UV absorption at 210 nm. Manual integration (AUC) allowed estimation of remaining intact peptide over the time course of the experiment.

[4] = molecular target: T3, human glucose-dependent insulinotropic peptide receptor (GIPR) (Homo sapiens, UniProt P48546); experiment: cAMP assay, human GIPR cells; assay type: cell-based; details: Table 9, bis-lipidated peptides
T3 construct: expressed in transfected cells; host or cells: HEK293 cells or CHO cells
T3 sequence (P48546 22-466): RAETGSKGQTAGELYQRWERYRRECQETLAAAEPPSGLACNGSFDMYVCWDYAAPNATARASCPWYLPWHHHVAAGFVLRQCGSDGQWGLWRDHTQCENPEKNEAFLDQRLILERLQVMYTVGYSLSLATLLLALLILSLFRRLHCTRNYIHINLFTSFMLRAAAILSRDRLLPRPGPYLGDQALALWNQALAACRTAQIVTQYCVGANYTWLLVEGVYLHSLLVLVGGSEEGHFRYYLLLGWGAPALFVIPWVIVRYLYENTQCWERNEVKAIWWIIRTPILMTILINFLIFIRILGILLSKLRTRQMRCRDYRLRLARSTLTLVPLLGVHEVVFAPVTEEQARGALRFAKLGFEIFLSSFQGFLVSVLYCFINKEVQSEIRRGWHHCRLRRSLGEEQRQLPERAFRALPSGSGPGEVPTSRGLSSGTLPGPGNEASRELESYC
In short: (§1)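 Peptide-stimulated cAMP measured by two-step HTRF after a 30 min room-temperature incubation with receptor-expressing cells (hGLP-1R, hGIPR at 1×10^5 cells/ml; hGCGR at 2×10^5 cells/ml). Duplicate dilutions; EC50 from 4-parameter logistic fit of % Delta F.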

[5] = tested on: FASSIF/Pancreatin® activated with 100 μg/mL human enterokinase; experiment: Proteolytic resistance to FASSIF/Pancreatin following full zymogen activation with enterokinase; assay type: in vitro ADME; details: t = 0; 37° C.
Procedure: A fresh suspension of FASSIF/P (Fasted-State Simulated Intestinal Fluid+USP Pancreatin®) was prepared according to that described by Galia, Nicolaides, Hörter, Lobenberg, Reppas and Dressman: Pharm. […] To the resulting preparation was added human enterokinase (100 μg/mL) to ensure the potential for full zymogen activity of the mixture which was used immediately without storage. Peptides for evaluation (1.0 mg, ˜250 nmoles) were initially dissolved in pre-warmed FASSIF without Pancreatin® (200 μL) to which was added pre-warmed fresh FASSIF/Pancreatin® ([…]) to initiate potential digestion. Following momentary vortexing of the Eppendorf reaction tube the mixture was incubated at 37° C. in a thermostatic waterbath for the duration of the experiment. 25 μL aliquots of the co-incubated peptide-enzyme mixture were periodically withdrawn (t=0, 5 m, 10 m, 15 m, 30 m, 1 h, 2 h) and quenched immediately by addition to a solution of 10% TFA in 1:1 water/acetonitrile (75 μL) to arrest proteolytic activity.

[6] = tested on: recombinant α-chymotrypsin; experiment: Proteolytic resistance to α-chymotrypsin (% remaining intact peptide, RP-HPLC AUC); details: t = 0; 37° C., pH 7.8
Procedure: (§2) Ratio enzyme (units):peptide (μmoles) ˜1:33. […] Ratio enzyme (units):peptide (μmoles) ˜1:2.5.
(§3) 15 μL aliquots (˜15 μg initial peptide) of the peptide-enzyme mixture are periodically withdrawn (t=0, 30 mins, 1 hr, 2 hr, 4 hr, 8 hr, 24 hr) and quenched immediately by addition to an equal volume (15 μL) of 5% TFA (v/v) in 1:1 water/acetonitrile to arrest proteolytic activity. 20 μL aliquots (˜10 μg initial peptide) are analysed by LC/MS and/or analytical RP-HPLC as follows: LC/MS method: Agilent Polaris C8-A column (4.6×100 mm, 3 micron) elutes with a linear binary gradient of 10-90% MeCN (0.1% TFA v/v) in water (0.1% TFA v/v) over 30 mins at 1.5 mL min^−1 at ambient temperature with detection by both UV absorption at 210 nm and ionization using a Waters 3100 mass detector (ESI^+ mode). Peptide fragments deriving from enzymatic hydrolysis are identified by molecular weight, allowing location of the site of cleavage. Analytical RP-HPLC method: Agilent Polaris C8-A column (4.6×100 mm, 3 micron) elutes with a linear binary gradient of 10-90% MeCN (0.1% TFA v/v) in water (0.1% TFA v/v) over either 10 or 15 mins at 1.5 mL min^−1 at 40° C. with detection by UV absorption at 210 nm. Manual integration (AUC) allows estimation of remaining intact peptide over the time course of the experiment.
(§4) 25 μL aliquots (˜6 μg initial peptide) are analysed by LC/MS and/or analytical RP-HPLC as follows: LC/MS method: Agilent Polaris C8-A column (4.6×100 mm, 3 micron) elutes with a linear binary gradient of 10-90% MeCN (0.1% TFA v/v) in water (0.1% TFA v/v) over 30 mins at 1.5 mL min^−1 at ambient temperature with detection by both UV absorption at 210 nm and ionization using a Waters 3100 mass detector (ESI±mode). Peptide fragments deriving from enzymatic hydrolysis are identified by molecular weight, allowing location of the site of cleavage. Analytical RP-HPLC method: Agilent Polaris C8-A column (4.6×100 mm, 3 micron) elutes with a linear binary gradient of 10-90% MeCN (0.1% TFA v/v) in water (0.1% TFA v/v) over either 10 or 15 mins at 1.5 mL min^−1 at 40° C. with detection by UV absorption at 210 nm. Manual integration (AUC) allows estimation of remaining intact peptide over the time course of the experiment.

[7] = as above; details: recombinant α-chymotrypsin in assay buffer, pH 7.8
Procedure: as §2, §3, §4

[8] = molecular target: T4, human glucagon receptor (GCGR) (Homo sapiens, UniProt P47871); experiment: cAMP assay, human GCGR cells; assay type: cell-based; details: Table 9, bis-lipidated peptides
T4 construct: expressed in transfected cells; host or cells: HEK293 cells or CHO cells
T4 sequence (P47871 26-477): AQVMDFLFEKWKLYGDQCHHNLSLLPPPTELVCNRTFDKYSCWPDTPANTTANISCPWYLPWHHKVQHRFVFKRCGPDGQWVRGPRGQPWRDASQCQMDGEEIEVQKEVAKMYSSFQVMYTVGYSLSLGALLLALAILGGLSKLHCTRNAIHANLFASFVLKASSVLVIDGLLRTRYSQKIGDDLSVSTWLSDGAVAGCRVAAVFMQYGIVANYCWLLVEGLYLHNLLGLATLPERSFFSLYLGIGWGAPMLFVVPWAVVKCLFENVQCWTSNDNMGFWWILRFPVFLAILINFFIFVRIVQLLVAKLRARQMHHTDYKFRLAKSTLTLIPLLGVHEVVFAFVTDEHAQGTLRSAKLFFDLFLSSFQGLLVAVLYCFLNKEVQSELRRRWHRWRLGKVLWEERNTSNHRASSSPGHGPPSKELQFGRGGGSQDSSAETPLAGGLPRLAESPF
In short: as §1

Percentage remaining intact peptide (AUC by RP-HPLC) upon incubation with trypsin [1]: 100%
Percentage remaining intact peptide (AUC by RP-HPLC) upon incubation with pepsin [2]: 100%
Percentage remaining peptide (AUC at specified time-point by RP-HPLC) upon incubation with neprilysin, t = 0 [3]: 100%
EC50 ([4]; first replicate, read-out: Primary assay EC50 GIP-R (n1)): ≥ 22.8 nM
EC50 ([4]; second replicate, read-out: Primary assay EC50 GIP-R (n2)): ≥ 22.8 nM
Percentage remaining intact peptide (AUC by RP-HPLC) upon incubation with FASSIF activated with 100 μg/mL enterokinase [5]: 100%
Percentage remaining intact peptide (AUC by RP-HPLC) upon incubation with α-chymotrypsin [6]: 100%
remaining at 0.5 h [7]: 97.1%
remaining at 1 h [7]: 95.8%
remaining at 2 h [7]: 96%
remaining at 4 h [7]: 94.2%
remaining at 8 h [7]: 92.6%
remaining at 24 h [7]: 89.4%
EC50 ([8]; first replicate, read-out: Primary assay EC50 Gluc-R (n1)): ≥ 22.8 nM
EC50 ([8]; second replicate, read-out: Primary assay EC50 Gluc-R (n2)): ≥ 22.8 nM
Structure (SMILES): CCCCCCCCCCCC(=O)N[C@@H](CCC(=O)NCCOCCOCC(=O)NCCOCCOCC(=O)NCCCC[C@H](NC(=O)[C@H](C)NC(=O)[C@@H](NC(=O)[C@H](Cc1ccccc1)NC(=O)[C@H](CCC(=O)O)NC(=O)[C@](C)(CCCCN)NC(=O)[C@H](C)NC(=O)[C@H](C)NC(=O)[C@H](CCC(=O)O)NC(=O)CNC(=O)[C@H](CCC(=O)O)NC(=O)[C@H](CCCCNC(=O)COCCOCCNC(=O)COCCOCCNC(=O)CC[C@H](NC(=O)CCCCCCCCCCC)C(=O)O)NC(=O)[C@H](Cc1ccc(O)cc1)NC(=O)[C@H](CO)NC(=O)[C@](C)(CO)NC(=O)[C@@H](NC(=O)[C@H](CC(=O)O)NC(=O)[C@H](CO)NC(=O)[C@@H](NC(=O)[C@](C)(Cc1ccccc1)NC(=O)[C@H](CO)NC(=O)CNC(=O)[C@H](CCC(=O)O)NC(=O)C(C)(C)NC(=O)[C@@H](N)Cc1c[nH]cn1)[C@@H](C)O)C(C)C)[C@@H](C)CC)C(=O)N[C@H](C(=O)N[C@H](C(=O)N[C@@H](CCC(=O)O)C(=O)NCC(=O)NCC(N)=O)C(C)C)C(C)C)C(=O)O [compound 269] (H-H[Aib]EGS[αMeF]TSDV[αMeS]SYK([AEEA-AEEA-γGlu-Lauroyl])EGEAA[αMeK]EFIAK([AEEA-AEEA-γGlu-Lauroyl])VVEGG-NH2; N-terminus assumed)
